Data: patent US20130273519A1, “COMPOSITION FOR TREATING BLOOD AND SET OF DIAGNOSTIC KIT COMPRISING THE SAME TO DETECT AUTOIMMUNE DISEASE” (priority 2012, published 2013)

Tested on: level of expression of MMP-3 in blood
Experiment: Level of expression of MMP-3 in blood stimulated with PMA, measured using flow cytometer (FACS)
Format: cell-based, human
Parameters: unit not given here
Conditions: for level of expression of MMP-3, After: 500 ul whole blood, 90 ng PMA, 3 h + 6 h Brefeldin A; for level of expression of MMP-3, Total (After minus Before): PMA stimulation
Description: In order to implement the method of stimulating blood and to check the clinical value of the kit of the present invention, the level of expression of MMP-3 was checked using a flow cytometer. 3 ml of blood was collected to sodium citrate tube (BD vacutainer), and CBC (complete blood count) was measured immediately upon pumping-up the blood. Then, the blood was stimulated with the chemical substance of the present invention. 500 ul of whole blood was put into the 24 wells plate for cell culture, and 90 ng of PMA was added into the plate. Then, the cell culture plate was put into a 5% CO2 incubator, and was kept at 37 for 3 hours. After 3 hours, 200 ug/ml of Brefeldin A(SIGMA) was added into the plate, and placed at 37 for 6 hours.
After lapse of the total 9 hours, 50 ul of blood was extracted, and put into 2 tubes respectively. Then, 10 ul of CD45-PC5 10 and 10 ul of CD14-FITC were respectively added to the 2 tubes, mixed with each other, and placed in a darkroom at room temperature for 15 min. Then, 100 ul of RBC lysis buffer (Bechman coulter) was added to the 2 tubes respectively, and mixed with each other using a vortex. The mixtures were placed in a darkroom at room temperature for 15 min. Then, 4 ml of PBS was added to the 2 tubes respectively, and centrifuged to remove the supernatant. Here, the supernatant was not removed using pipette, but poured out to minimize the loss of cells. 100 ul of 0.1% saponin was added to the remaining cells, and stirred smoothly using pipette. Then, the mixture was placed in a darkroom at room temperature for 5min. Then, 10 ul of IgG1-PE was added to the control group and 10 ul of MMP-3-PE was added to the comparative group, and then the both groups were placed in a darkroom for 15 min. After 15 min, 4 ml of PBS was added to the each group, and centrifuged under the condition of 2000 g, 5 min and 4 to remove the supernatant. Then, 500 ul of fresh PBS was added to the each group, and fluorescence-activated cell sorting (FACS) was performed.

[1] = RA (R), patient with reduced activity after being treated with drugs
[2] = RA (S), patient with severe rheumatoid arthritis
[3] = RA (mi), patient with mild rheumatoid arthritis

`CCCCCCCCCCCCCC(=O)O[C@@H]1[C@@H](C)[C@@]2(O)[C@@H](C=C(CO)C[C@]3(O)C(=O)C(C)=C[C@@H]23)[C@@H]2C(C)(C)[C@]12OC(C)=O` [PMA, Phorbol 12-myristate 13-acetate] was tested, and the “level of expression of MMP-3, After” value (Normal1 (normal person)) was 39.23, the “level of expression of MMP-3, Total (After minus Before)” value (from here on “level … (After minus Before)”) (Normal1 (normal person)) was 12.56 and the “level of expression of MMP-3, After” value (Normal2 (normal person)) was 53.05. For the same compound, the “level … (After minus Before)” value (Normal2 (normal person)) was 11.49, the “level of expression of MMP-3, After” value [1] was 48.35 and the “level … (After minus Before)” value [1] was 14.86. For the same compound, the “level of expression of MMP-3, After” value [2] was 68.97, the “level … (After minus Before)” value [2] was 43.64 and the “level of expression of MMP-3, After” value [3] was 63.65. The “level … (After minus Before)” value [3] was 27.52, the “level of expression of MMP-3, After” value (RA (s)) was 64.53 and the “level … (After minus Before)” value (RA (s)) was 26.12.
